Assay results as given in patent publication US6531469B1, “Substituted 1-(4-piperidyl)-3-(aryl) isothioureas their preparation and their therapeutic application” (Pierre Fabre Medicament, priority 1999, dated 2003).
Counter-ions that a name gives are not always drawn.

Key:
[1] = test system: infused isolated guinea pig heart; assay: Inhibition of diastolic contracture induced by global ischemia of infused isolated guinea pig heart (Langendorff); conditions: global ischemia 50 min, relative to vehicle group; for inhibition at 1 µM: Cavia porcellus, 50 min
Excerpt: (§1) The compounds of the present invention of formula I and the therapeutically acceptable salts thereof have advantageous pharmacological properties. These derivatives are active in vitro, on cardiomyocytes, by inhibiting the diastolic contracture induced with veratrine, on rat isolated left atrium. They also abolish the diastolic contracture induced by the global ischemia of infused isolated guinea pig heart according to the Langendorff technique. These compounds are also active in vivo, in reinfusion ischemia in anesthetized rabbits: they inhibit the electrical disturbances in the ECG which are caused by reinfusion ischemia, without any appreciable hemodynamic effect, and are not cardiac depressants. Such compounds are useful preventively or curatively in the treatment of coronaropathies, cardiac and cerebral ischemia in all their forms and in the treatment of atherosclerosis, cardiac insufficiency, pain, migraine and epilepsy.
2) Inhibition of the diastolic contracture induced by the global ischemia of infused isolated guinea pig heart is carried out according to the technique described by Le Grand B. et al. (Am. J. Physiol. 269, H533-H540 (1995)). The guinea pig hearts collected are infused with a modified Krebs solution and, after stabilization for 20 minutes, the test compound dissolved in water or in aqueous 1% DMSO solution is added. After 15 minutes, global ischemia is induced by stopping the coronary infusion for 50 minutes, followed by reinfusion for 1 h. The inhibition of ischemic contracture, in the presence of the compounds of the present invention, is measured relative to that obtained in the vehicle group. The results are given in Table II by way of non-limiting example at a concentration of 1 μM.

rat isolated left atrium = assay: Inhibition of the contracture with veratrine, rat isolated left atrium; conditions: veratrine-induced contracture, 10^−7 M of test compound
Excerpt: as §1
1) Inhibition of the contracture with veratrine, of rat isolated left atrium, was carried out according to the technique of Le Grand et al. (Naunyn—Schmiedeberg's Arch Pharmacol (1993) 348 p 184-190). The results are given in Table I. The percentages of inhibition are relative to a concentration of 10^−7 M of test compound.

anesthetized rabbits = assay: Ischemia-reinfusion in anesthetized rabbits, oral route; type: in vivo; conditions: anesthetized rabbit
Excerpt: as §1
The compounds of the present invention are also active via the oral route in the test of ischemia-reinfusion in anesthetized rabbits, according to the method of Verscheure et al. (J. Cardiovasc Pharmacol (1995) 25 p 126-133). The results for the compounds of Examples 6 and 14 are given in Table III below, by way of non-limiting example: […]

For CS(=O)(=O)c1cc(C(=O)NC(=N)N)ccc1N1CCCCC1.Cl [HOE 694, 3-(Methylsulfonyl-4-piperidinobenzoyl)guanidine hydrochloride, reference compound], which “% diastolic contracture inhibition at 1 μM” value [1] is on record?
The value was 17%.

With COc1ccc(CCOCC(O)CN2CCC(N(C)C3=Nc4ccccc4CS3)CC2)cc1.O=C(O)/C=C/C(=O)O (stereo not drawn) as the compound, how does the melting point read?
The melting point was 132 to 133 °C.

With CN(C1=Nc2ccccc2CS1)C1CCN(CCCCOc2ccc(F)c(F)c2)CC1 [Control, N-Methyl-N-[1-[4-(3,4-difluorophenoxy)butyl]-4-piperidyl)-4H-3,1-benzothiazin-2-amine] as the compound, how does the inhibition at 0.1 µM (rat isolated left atrium) read?
Its inhibition at 0.1 µM is 26%.

What about the inhibition at 1 µM [1] of the same compound?
The inhibition at 1 µM was 48%.

What about the “% change in arterial pressure” value (anesthetized rabbits; 0.63 mg/kg p.o.) of the same compound?
The value was 5%.

What about the “% change in heart rate” value (anesthetized rabbits; 0.63 mg/kg p.o.) of the same compound?
Its value is 0%.

And the “% inhibition of over-increase of ST segment” value (anesthetized rabbits; 0.63 mg/kg p.o.)?
Its value is 31%.

What about the “Number of animals with reinfusion arrhythmia” value (shortened to “Number of animals”) (anesthetized rabbits; 0.63 mg/kg p.o.) of the same compound?
Its value is 1/5.

For “N-Methyl-N-[1-[2-hydroxy-3-(4-fluorophenylmethoxy)-propyl]-4-piperidyl]-4H-3,1-benzothiazin-2-amine Hemifumarate [Example 23]”, which “% inhibition at 10^−7 M” value (rat isolated left atrium) is on record?
Its value is 35%.

Which melting point does the source give for COc1ccc(CCOCCCN2CCC(N(C)C3=Nc4ccccc4CS3)CC2)cc1.O=C(O)/C=C/C(=O)O here?
The melting point was 155 °C.

For COc1cc2c(c(OC)c1OC)N=C(N(C)C1CCN(CCCOCCc3ccc(F)cc3)CC1)SC2.O=C(O)/C=C/C(=O)O, which melting point is on record?
The melting point was 68 °C.

Which inhibition at 0.1 µM (rat isolated left atrium) does the source give for CN(c1nc2ccccc2s1)C1CCN(CCCCOc2ccc(F)cc2)CC1 [Example R56865, N-(1-(4-(4-fluorophenoxy)butyl)4-piperidyl)-N-methyl-2-benzothiazolamine] here?
Its inhibition at 0.1 µM is 32%.

And the “% change in arterial pressure” value (anesthetized rabbits; 2.5 mg/kg p.o.)?
The value was 27%.

And the “% change in heart rate” value (anesthetized rabbits; 2.5 mg/kg p.o.)?
Its value is 0%.

What about the “% inhibition of over-increase of ST segment” value (anesthetized rabbits; 2.5 mg/kg p.o.) of the same compound?
The value was 0%.

What about the “Number of animals” value (anesthetized rabbits; 2.5 mg/kg p.o.) of the same compound?
The value was 2/5.

What about the “% change in arterial pressure” value (anesthetized rabbits; 10 mg/kg p.o.) of the same compound?
Its value is 15%.

And the “% change in heart rate” value (anesthetized rabbits; 10 mg/kg p.o.)?
Its value is 5%.

And the “% inhibition of over-increase of ST segment” value (anesthetized rabbits; 10 mg/kg p.o.)?
The value was 100%.

What about the “Number of animals” value (anesthetized rabbits; 10 mg/kg p.o.) of the same compound?
Its value is 0/5.

For COc1ccc(COCCCCCN2CCC(N(C)C3=Nc4ccccc4CS3)CC2)cc1.O=C(O)/C=C/C(=O)O, which melting point is on record?
Its melting point is 163 °C.

With CN(C1=Nc2ccccc2CS1)C1CCN(CCCOCCc2ccc(F)cc2)CC1 (as salt: fumarate) [Example 6, N-Methyl-N-[1-[3-[2-(4-fluorophenyl)ethoxy]propyl]-4-piperidyl]-4H-3,1-benzothiazin-2-amine Hydrogen Fumarate] as the compound, how does the melting point read?
Its melting point is 163 to 164 °C.

For CN(C1=Nc2ccccc2CS1)C1CCN(CCCOCCCc2ccc(F)cc2)CC1.O=C(O)/C=C/C(=O)O, which melting point is on record?
The melting point was 176 °C.

Which melting point does the source give for COc1ccc(COCCCCN2CCC(N(C)C3=Nc4ccccc4CS3)CC2)cc1.O=C(O)/C=C/C(=O)O here?
Its melting point is 165 °C.

With CN(C1=Nc2ccccc2CS1)C1CCN(CCOCc2ccc(F)cc2)CC1.O=C(O)/C=C/C(=O)O as the compound, how does the melting point read?
Its melting point is 160 to 161 °C.

For CN(C1=Nc2ccc(Cl)cc2CS1)C1CCN(CCCOCCc2ccc(F)cc2)CC1.O=C(O)/C=C/C(=O)O, which melting point is on record?
Its melting point is 167 to 170 °C.

With CN(C1=Nc2ccccc2CS1)C1CCN(CCCOCCc2ccc(F)c(F)c2)CC1.O=C(O)/C=C/C(=O)O [Example 14, N-Methyl-N-[1-[3-[2-(3,4-difluorophenyl)ethoxy]propyl]-4-piperidyl]-4H-3,1-benzothiazin-2-amine Hydrogen Fumarate] as the compound, how does the inhibition at 0.1 µM (rat isolated left atrium) read?
The inhibition at 0.1 µM was 32%.

And the inhibition at 1 µM [1]?
The inhibition at 1 µM was 77%.

What about the “% change in arterial pressure” value (anesthetized rabbits; 0.63 mg/kg p.o.) of the same compound?
Its value is 3%.

And the “% change in heart rate” value (anesthetized rabbits; 0.63 mg/kg p.o.)?
The value was −5%.

What about the “% inhibition of over-increase of ST segment” value (anesthetized rabbits; 0.63 mg/kg p.o.) of the same compound?
Its value is 83%.

And the “Number of animals” value (anesthetized rabbits; 0.63 mg/kg p.o.)?
Its value is 0/5.

And the melting point?
Its melting point is 162 °C.

For CN(c1nc2ccccc2s1)C1CCN(CC(O)COc2ccc(F)cc2)CC1 (stereo not drawn) [Sabeluzole], which inhibition at 0.1 µM (rat isolated left atrium) is on record?
Its inhibition at 0.1 µM is 5%.

And the “% change in arterial pressure” value (anesthetized rabbits; 10 mg/kg p.o.)?
The value was 12%.

And the “% change in heart rate” value (anesthetized rabbits; 10 mg/kg p.o.)?
Its value is 0%.

What about the “% inhibition of over-increase of ST segment” value (anesthetized rabbits; 10 mg/kg p.o.) of the same compound?
The value was 34%.

And the “Number of animals” value (anesthetized rabbits; 10 mg/kg p.o.)?
Its value is 3/4.

For CN(C1=Nc2ccccc2CS1)C1CCN(CCCOCc2ccc(F)cc2)CC1.O=C(O)/C=C/C(=O)O, which melting point is on record?
The melting point was 163 to 164 °C.

Which melting point does the source give for CN(C1=Nc2ccccc2CS1)C1CCN(CCCCOCCc2ccc(F)c(F)c2)CC1.O=C(O)/C=C/C(=O)O here?
The melting point was 163 °C.

For CN(C1=Nc2ccccc2CS1)C1CCN(CCCOCc2ccc(F)c(F)c2)CC1.O=C(O)/C=C/C(=O)O, which melting point is on record?
The melting point was 168 °C.

With CN(C1=Nc2ccccc2CS1)C1CCN(CCOCc2ccccc2)CC1.O=C(O)/C=C/C(=O)O as the compound, how does the melting point read?
The melting point was 166 to 167 °C.

For COc1ccc(COCCCN2CCC(N(C)C3=Nc4ccccc4CS3)CC2)cc1.O=C(O)/C=C/C(=O)O, which melting point is on record?
The melting point was 166 °C.

For CN(C1=Nc2ccccc2CS1)C1CCN(CCOCCc2ccc(F)cc2)CC1 (as salt: fumarate) [Example 9, N-Methyl-N-[1-[2-[2-(4-fluorophenyl)ethoxy]ethyl]-4-piperidyl]-4H-3,1-benzothiazin-2-amine], which melting point is on record?
Its melting point is 145 to 146 °C.

For Cc1ccc2c(c1)CSC(N(C)C1CCN(CCCOCCc3ccc(F)cc3)CC1)=N2.O=C(O)/C=C/C(=O)O, which melting point is on record?
Its melting point is 169 to 172 °C.

What does the source list for CN(C1=Nc2ccccc2CS1)C1CCN(CCCOCCc2ccc(F)cc2)CC1 [Example 6, N-Methyl-N-[1-[3-[2-(4-fluorophenyl)ethoxy]propyl]-4-piperidyl]-4H-3,1-benzothiazin-2-amine Hydrogen Fumarate]?
inhibition at 0.1 µM (rat isolated left atrium): 41%; inhibition at 1 µM [1]: 79%; % change in arterial pressure (anesthetized rabbits; 0.63 mg/kg p.o.): 0%; % change in heart rate (anesthetized rabbits; 0.63 mg/kg p.o.): −7%; % inhibition of over-increase of ST segment (anesthetized rabbits; 0.63 mg/kg p.o.): 42%; Number of animals with reinfusion arrhythmia (anesthetized rabbits; 0.63 mg/kg p.o.): 3/5

For CN(C1=Nc2ccccc2CS1)C1CCN(CCCCCOCc2ccc(F)c(F)c2)CC1.O=C(O)/C=C/C(=O)O, which melting point is on record?
Its melting point is 169 °C.

For CN(C1=Nc2ccccc2CS1)C1CCN(CCCCOCc2ccc(F)c(F)c2)CC1.O=C(O)/C=C/C(=O)O, which melting point is on record?
Its melting point is 170 °C.

For COc1ccc(CCOCCN2CCC(N(C)C3=Nc4ccccc4CS3)CC2)cc1.O=C(O)/C=C/C(=O)O, which melting point is on record?
Its melting point is 152 to 153 °C.

For COc1ccc(CCOCCCCN2CCC(N(C)C3=Nc4ccccc4CS3)CC2)cc1.O=C(O)/C=C/C(=O)O, which melting point is on record?
Its melting point is 156 °C.

For CN(C1=Nc2ccccc2CS1)C1CCN(CCCCOCCc2ccc(F)cc2)CC1.O=C(O)/C=C/C(=O)O [Example 5, N-Methyl-N-[1-[4-[2-(4-fluorophenyl)ethoxy]butyl]-4-piperidyl]-4H-3,1-benzothiazin-2-amine Hydrogen Fumarate], which inhibition at 0.1 µM (rat isolated left atrium) is on record?
Its inhibition at 0.1 µM is 63%.

And the melting point?
Its melting point is 173 to 174 °C.

With CN(C1=Nc2ccccc2CS1)C1CCN(CCCOCCc2ccccc2)CC1.O=C(O)/C=C/C(=O)O as the compound, how does the melting point read?
Its melting point is 166 °C.

Which melting point does the source give for CN(C1=Nc2ccccc2CS1)C1CCN(CCCCCOCc2ccc(F)cc2)CC1.O=C(O)/C=C/C(=O)O here?
The melting point was 167 °C.

With Fc1ccc(CCOCCCN2CCC(NC3=Nc4ccccc4CO3)CC2)cc1 (as salt: hydrochloride) (hydrate or solvate) [Example 30, N-[1-[3-[2-(4-Fluorophenyl)ethoxypropyl]-4-piperidyl]-4H-3,1-benzoxazin-2-amine Dihydrochloride Hydrate] as the compound, how does the melting point read?
Its melting point is 158 to 159 °C.
